Test system: patients with MUM
Assay: Adverse events regardless of study drug relationship
Format: in vivo, human
Experimental: Routine safety assessments, including laboratory assessments, physical examinations, vital signs and electrocardiograms (ECGs), were conducted at regular intervals throughout the study and more frequently as needed following patient assessment by the treating physician. Adverse events (AEs) were assessed continuously according to the National Cancer Institute Common Terminology Criteria for Adverse Events (NCI-CTCAE) v4.03.

CC1(N)CCN(c2cccnc2NC(=O)c2nc(-c3ncccc3C(F)(F)F)cnc2N)CC1 [LXS196]
ALT increased, all grades (100 mg QD): 0 n (%)
ALT increased, grade ≥3 (100 mg QD): 0 n (%)
AST increased, all grades (100 mg QD): 0 n (%)
AST increased, grade ≥3 (100 mg QD): 0 n (%)
Abdominal pain upper, all grades (100 mg QD): 0 n (%)
Abdominal pain upper, grade ≥3 (100 mg QD): 0 n (%)
Asthenia, all grades (100 mg QD): 0 n (%)
Asthenia, grade ≥3 (100 mg QD): 0 n (%)
Blood creatinine increased, all grades (100 mg QD): 0 n (%)
Blood creatinine increased, grade ≥3 (100 mg QD): 0 n (%)
Constipation, all grades (100 mg QD): 1 (33.3) n (%)
Constipation, grade ≥3 (100 mg QD): 0 n (%)
Decreased appetite, all grades (100 mg QD): 0 n (%)
Decreased appetite, grade ≥3 (100 mg QD): 0 n (%)
Dermatitis acneiform, all grades (100 mg QD): 0 n (%)
Dermatitis acneiform, grade ≥3 (100 mg QD): 0 n (%)
Diarrhoea, all grades (100 mg QD): 2 (66.7) n (%)
Diarrhoea, grade ≥3 (100 mg QD): 0 n (%)
Dry skin, all grades (100 mg QD): 0 n (%)
Dry skin, grade ≥3 (100 mg QD): 0 n (%)
Fatigue, all grades (100 mg QD): 0 n (%)
Fatigue, grade ≥3 (100 mg QD): 0 n (%)
Hypotension, all grades (100 mg QD): 0 n (%)
Hypotension, grade ≥3 (100 mg QD): 0 n (%)
Nasopharyngitis, all grades (100 mg QD): 0 n (%)
Nasopharyngitis, grade ≥3 (100 mg QD): 0 n (%)
Nausea, all grades (100 mg QD): 2 (66.7) n (%)
Nausea, grade ≥3 (100 mg QD): 0 n (%)
Neutropenia, all grades (100 mg QD): 0 n (%)
Neutropenia, grade ≥3 (100 mg QD): 0 n (%)
Oedema peripheral, all grades (100 mg QD): 1 (33.3) n (%)
Oedema peripheral, grade ≥3 (100 mg QD): 0 n (%)
Patients with ≥1 AE, all grades (100 mg QD): 3 (100) n (%)
Patients with ≥1 AE, grade ≥3 (100 mg QD): 0 n (%)
Rash, all grades (100 mg QD): 0 n (%)
Rash, grade ≥3 (100 mg QD): 0 n (%)
Vomiting, all grades (100 mg QD): 2 (66.7) n (%)
Vomiting, grade ≥3 (100 mg QD): 0 n (%)
ALT increased, all grades (200 mg BID): 1 (16.7) n (%)
ALT increased, grade ≥3 (200 mg BID): 0 n (%)
AST increased, all grades (200 mg BID): 1 (16.7) n (%)
AST increased, grade ≥3 (200 mg BID): 0 n (%)
Abdominal pain upper, all grades (200 mg BID): 0 n (%)
Abdominal pain upper, grade ≥3 (200 mg BID): 0 n (%)
Asthenia, all grades (200 mg BID): 1 (16.7) n (%)
Asthenia, grade ≥3 (200 mg BID): 0 n (%)
Blood creatinine increased, all grades (200 mg BID): 3 (50.0) n (%)
Blood creatinine increased, grade ≥3 (200 mg BID): 0 n (%)
Constipation, all grades (200 mg BID): 1 (16.7) n (%)
Constipation, grade ≥3 (200 mg BID): 0 n (%)
Decreased appetite, all grades (200 mg BID): 1 (16.7) n (%)
Decreased appetite, grade ≥3 (200 mg BID): 0 n (%)
Dermatitis acneiform, all grades (200 mg BID): 1 (16.7) n (%)
Dermatitis acneiform, grade ≥3 (200 mg BID): 0 n (%)
Diarrhoea, all grades (200 mg BID): 3 (50.0) n (%)
Diarrhoea, grade ≥3 (200 mg BID): 0 n (%)
Dry skin, all grades (200 mg BID): 1 (16.7) n (%)
Dry skin, grade ≥3 (200 mg BID): 0 n (%)
Fatigue, all grades (200 mg BID): 0 n (%)
Fatigue, grade ≥3 (200 mg BID): 0 n (%)
Hypotension, all grades (200 mg BID): 0 n (%)
Hypotension, grade ≥3 (200 mg BID): 0 n (%)
Nasopharyngitis, all grades (200 mg BID): 1 (16.7) n (%)
Nasopharyngitis, grade ≥3 (200 mg BID): 0 n (%)
Nausea, all grades (200 mg BID): 3 (50.0) n (%)
Nausea, grade ≥3 (200 mg BID): 0 n (%)
Neutropenia, all grades (200 mg BID): 1 (16.7) n (%)
Neutropenia, grade ≥3 (200 mg BID): 0 n (%)
Oedema peripheral, all grades (200 mg BID): 2 (33.3) n (%)
Oedema peripheral, grade ≥3 (200 mg BID): 0 n (%)
Patients with ≥1 AE, all grades (200 mg BID): 6 (100) n (%)
Patients with ≥1 AE, grade ≥3 (200 mg BID): 3 (50.0) n (%)
Rash, all grades (200 mg BID): 0 n (%)
Rash, grade ≥3 (200 mg BID): 0 n (%)
Vomiting, all grades (200 mg BID): 0 n (%)
Vomiting, grade ≥3 (200 mg BID): 0 n (%)
ALT increased, all grades (200 mg QD): 1 (25.0) n (%)
ALT increased, grade ≥3 (200 mg QD): 0 n (%)
AST increased, all grades (200 mg QD): 0 n (%)
AST increased, grade ≥3 (200 mg QD): 0 n (%)
Abdominal pain upper, all grades (200 mg QD): 0 n (%)
Abdominal pain upper, grade ≥3 (200 mg QD): 0 n (%)
Asthenia, all grades (200 mg QD): 1 (25.0) n (%)
Asthenia, grade ≥3 (200 mg QD): 0 n (%)
Blood creatinine increased, all grades (200 mg QD): 1 (25.0) n (%)
Blood creatinine increased, grade ≥3 (200 mg QD): 0 n (%)
Constipation, all grades (200 mg QD): 3 (75.0) n (%)
Constipation, grade ≥3 (200 mg QD): 0 n (%)
Decreased appetite, all grades (200 mg QD): 1 (25.0) n (%)
Decreased appetite, grade ≥3 (200 mg QD): 0 n (%)
Dermatitis acneiform, all grades (200 mg QD): 0 n (%)
Dermatitis acneiform, grade ≥3 (200 mg QD): 0 n (%)
Diarrhoea, all grades (200 mg QD): 2 (50.0) n (%)
Diarrhoea, grade ≥3 (200 mg QD): 0 n (%)
Dry skin, all grades (200 mg QD): 0 n (%)
Dry skin, grade ≥3 (200 mg QD): 0 n (%)
Fatigue, all grades (200 mg QD): 0 n (%)
Fatigue, grade ≥3 (200 mg QD): 0 n (%)
Hypotension, all grades (200 mg QD): 0 n (%)
Hypotension, grade ≥3 (200 mg QD): 0 n (%)
Nasopharyngitis, all grades (200 mg QD): 0 n (%)
Nasopharyngitis, grade ≥3 (200 mg QD): 0 n (%)
Nausea, all grades (200 mg QD): 2 (50.0) n (%)
Nausea, grade ≥3 (200 mg QD): 1 (25.0) n (%)
Neutropenia, all grades (200 mg QD): 0 n (%)
Neutropenia, grade ≥3 (200 mg QD): 0 n (%)
Oedema peripheral, all grades (200 mg QD): 1 (25.0) n (%)
Oedema peripheral, grade ≥3 (200 mg QD): 0 n (%)
Patients with ≥1 AE, all grades (200 mg QD): 4 (100) n (%)
Patients with ≥1 AE, grade ≥3 (200 mg QD): 3 (75.0) n (%)
Rash, all grades (200 mg QD): 0 n (%)
Rash, grade ≥3 (200 mg QD): 0 n (%)
Vomiting, all grades (200 mg QD): 2 (50.0) n (%)
Vomiting, grade ≥3 (200 mg QD): 1 (25.0) n (%)

From paper PMC10006169, “A phase I trial of LXS196, a protein kinase C (PKC) inhibitor, for metastatic uveal melanoma” (British Journal of Cancer, 2023)
